Data as given in patent US7956069B2, “Compounds” (AstraZeneca AB, priority 2006, dated 2011).

Experiments:
Assay type in all cases: cell-based
[1] = target: T1, hM1 (human Muscarinic receptor subtype 1) (Homo sapiens, UniProt P11229); test: Human M1 calcium mobilization FLIPR assay; conditions: CHO cells expressing hM1, Ca2+ release
T1 construct: expressed in transfected cells; host or cells: CHO cells (Chinese hamster ovary cells, ATCC)
T1 sequence (P11229 1-460): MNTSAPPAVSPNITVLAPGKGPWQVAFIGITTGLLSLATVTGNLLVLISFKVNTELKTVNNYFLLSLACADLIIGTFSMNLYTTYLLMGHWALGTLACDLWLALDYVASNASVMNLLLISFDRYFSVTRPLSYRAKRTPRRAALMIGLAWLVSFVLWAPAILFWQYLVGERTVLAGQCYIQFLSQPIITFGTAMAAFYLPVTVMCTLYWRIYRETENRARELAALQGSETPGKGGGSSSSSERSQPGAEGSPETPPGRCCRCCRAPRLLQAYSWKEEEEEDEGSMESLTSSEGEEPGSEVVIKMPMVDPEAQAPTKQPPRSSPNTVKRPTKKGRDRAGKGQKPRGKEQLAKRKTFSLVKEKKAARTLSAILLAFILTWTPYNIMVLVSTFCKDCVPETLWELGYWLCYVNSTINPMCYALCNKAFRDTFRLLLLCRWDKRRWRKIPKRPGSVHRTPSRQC
Experimental: (§1) Biological Evaluation Human M1, Rat M1, Human M3 and Human M5 Calcium Mobilization FLIPR™ Assay
(§2) The compound activity in the present invention (EC50 or IC50) was measured using a 384 plate-based imaging assay that monitors drug induced intracellular Ca^2+ release in whole cells. Activation of hM1 (human Muscarinic receptor subtype 1, gene bank access NM_000738), rM1 (rat Muscarinic receptor subtype 1, gene bank access NM_080773), hM3 (human Muscarinic receptor subtype 3, gene bank access NM_000740NM_000740) and hM5 (human Muscarinic receptor subtype 5, gene bank access NM_0121258), receptors expressed in CHO cells (Chinese hamster ovary cells, ATCC) was quantified in a Molecular Devices FLIPR II™ instrument as an increase in fluorescent signal. Inhibition of hM3 and hM5 by compounds was determined by the decrease in fluorescent signal in response to 20 nM carbachol activation.
(§3) CHO cells were plated in 384-black polylysine coated plate (Costar) at 8000 cells/well/50 μl for 24 hours or 4000 cells/well for 48 hours in a humidified incubator (5% CO2 and 37° C.) in DMEM/F12 medium without selection agent. Prior to the experiment the cell culture medium was removed from the plates by inversion. A loading solution of 30 μl of Hank's balanced salt solution, 10 mM Hepes and 2.5 mM Probenicid at Ph 7.4 (Cat no. 311-520-VL, Wisent) with 2 μM calcium indicator dye (FLUO-3AM, Molecular Probes F14202) was added to each well. Plates were incubated at 37° C. for 60 minutes prior to start the experiment. The incubation was terminated by washing the cells four times in assay buffer, leaving a residual 25 μl buffer per well. Cell plates were then transferred to the FLIPR, ready for compound additions.
(§4) The day of experiment, carbachol and compounds were diluted in three-fold concentration range (10 points serial dilution) for addition by FLIPR instrument. For all calcium assays, a baseline reading was taken for 30 seconds followed by the addition of 12.5 μl (25 μl for hM1 and rM1) of compounds, resulting in a total well volume of 37.5 μl (50 μl for hM1 and rM1). Data were collected every 1.6 seconds for 300 seconds. For hM3 and hM5 an additional 12.5 μl of carbachol (20 nM final) was added at 300 seconds. After this addition of carbachol (producing a final volume of 50 μl), the FLIPR continued to collect data every 2 seconds for 240 seconds. The fluorescence emission was read using filter 1 (emission 520-545 nm) by the FLIPR on board CCD camera.
(§5) Calcium mobilization output data were calculated as the maximal relative fluorescence unit (RFU) minus the minal value for both compound and agonist reading frame (except for hM1 and rM1 using only the maximal RFU). Data were analyzed using sigmoidal fits of a non-linear curve-fitting program (XLfit version 5.0.6 from ID Business Solutions Limited, Guildford, UK). All EC50 and IC50 values are reported as arithmetic means±standard error of mean of ‘n’ independent experiments.

[2] = target: T2, hM5 (human Muscarinic receptor subtype 5) (Homo sapiens, UniProt P08912); test: Human M5 calcium mobilization FLIPR assay; conditions: CHO cells expressing hM5, Ca2+ release
T2 construct: expressed in transfected cells; host or cells: CHO cells (Chinese hamster ovary cells, ATCC)
T2 sequence (P08912 1-532): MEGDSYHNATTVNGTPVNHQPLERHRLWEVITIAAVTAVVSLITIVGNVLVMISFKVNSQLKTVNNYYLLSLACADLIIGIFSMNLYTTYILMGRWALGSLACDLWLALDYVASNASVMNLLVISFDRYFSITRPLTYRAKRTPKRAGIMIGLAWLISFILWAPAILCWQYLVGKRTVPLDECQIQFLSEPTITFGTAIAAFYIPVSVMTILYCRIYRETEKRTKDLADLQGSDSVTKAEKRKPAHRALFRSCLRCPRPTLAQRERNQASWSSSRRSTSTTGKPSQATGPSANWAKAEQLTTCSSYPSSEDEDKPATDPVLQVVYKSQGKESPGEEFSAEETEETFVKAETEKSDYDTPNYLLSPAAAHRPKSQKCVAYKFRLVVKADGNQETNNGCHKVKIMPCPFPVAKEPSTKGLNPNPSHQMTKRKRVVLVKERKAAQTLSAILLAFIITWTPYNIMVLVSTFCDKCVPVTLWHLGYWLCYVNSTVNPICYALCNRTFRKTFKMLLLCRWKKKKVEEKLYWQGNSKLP
Experimental: as §1, §2, §3, §4, §5

[3] = target: T3, hM3 (human Muscarinic receptor subtype 3) (Homo sapiens, UniProt P20309); test: Human M3 calcium mobilization FLIPR assay; conditions: CHO cells expressing hM3, Ca2+ release
T3 construct: expressed in transfected cells; host or cells: CHO cells (Chinese hamster ovary cells, ATCC)
Experimental: as §1, §2, §3, §4, §5

T3 sequence (P20309 whole entry): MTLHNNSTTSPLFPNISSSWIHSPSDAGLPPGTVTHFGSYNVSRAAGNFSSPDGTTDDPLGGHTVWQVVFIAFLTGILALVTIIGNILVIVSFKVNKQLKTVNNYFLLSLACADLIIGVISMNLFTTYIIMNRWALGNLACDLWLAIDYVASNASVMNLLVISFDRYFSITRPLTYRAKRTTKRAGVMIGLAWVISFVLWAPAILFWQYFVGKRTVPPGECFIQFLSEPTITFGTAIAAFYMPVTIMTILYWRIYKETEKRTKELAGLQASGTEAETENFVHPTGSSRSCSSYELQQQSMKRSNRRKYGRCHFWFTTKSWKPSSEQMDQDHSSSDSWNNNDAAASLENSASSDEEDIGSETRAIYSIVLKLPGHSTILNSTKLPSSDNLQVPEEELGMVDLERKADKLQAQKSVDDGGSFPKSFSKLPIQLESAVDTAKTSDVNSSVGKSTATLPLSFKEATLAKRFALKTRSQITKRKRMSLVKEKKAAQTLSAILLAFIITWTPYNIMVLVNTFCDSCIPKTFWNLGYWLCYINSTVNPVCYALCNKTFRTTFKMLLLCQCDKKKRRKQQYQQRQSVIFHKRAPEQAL

SMILES	EC50 [1] [nM]	EC50 [2] [nM]	EC50 [3] [nM]
O=C(C1CC1(F)F)N1CCC(N2CCC(N3C(=O)N[C@H]4CCCC[C@@H]43)CC2)CC1 (some centres unmarked)	81		
O=C(c1ccccc1)N1CCC(N2CCC(N3C(=O)N[C@@H]4CCCC[C@H]43)CC2)CC1	600		
O=C(C1CCCC1)N1CCC(N2CCC(N3C(=O)N[C@@H]4CCCC[C@@H]43)CC2)CC1	300		
Cc1ccccc1C(=O)N1CCC(N2CCC(N3C(=O)C[C@H]4CCCC[C@@H]43)CC2)CC1	93	> 40000	> 40000
CCOC(=O)N1CCC(N2CCC(N3C(=O)N(C(C)C)[C@H]4CCCC[C@@H]43)CC2)CC1	1200	> 40000	> 40000
CCNC(=O)N1CCC(N2CCC(N3C(=O)N[C@@H]4CCCC[C@H]43)CC2)C1 (mixture of isomers)	1000		
CCOC(=O)N1CCC(N2CCC(N3C(=O)C[C@H]4CCCC[C@@H]43)CC2)C1 (single isomer, unassigned)	59		
